Patent publication US9776972B2, “Pyrazole derivatives as arginine methyltransferase inhibitors and uses thereof” (priority 2013, dated 2017)
Structures can show the parent of a compound that is named as a salt. Where two headings read alike, the source gives them in different places.

Tests used:
[1] = molecular target: human PRMT8 (Homo sapiens, UniProt Q9NR22); experiment: PRMT8 Biochemical Assay (3H-SAM Flashplate, peptide substrate); conditions: single experiment or average of multiple experiments
Method in brief: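 Methylation of a biotin-tagged histone H4 peptide (residues 31-45) by recombinant PRMT8 was measured as 3H transfer from 3H-SAM, after a 30 min room-temperature compound preincubation in Bicine buffer pH 7.6. Reactions were quenched with unlabelled SAM to 400 uM final, then bound counts were read by streptavidin Flashplate. IC50 came from a Hill fit of % inhibition relative to max and SAH min controls.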

[2] = tested on: mono-methyl arginine in RKO cells; experiment: RKO Methylation Assay, In Cell Western (ICW) for mono-methyl arginine and DNA content; type: cell-based; conditions: for EC30: Homo sapiens, RKO, 72 h; for EC30 (In Cell Western data): class symbols
Method in brief: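 After fixation, mono-methyl arginine and DNA (DRAQ5) were measured by infrared In-Cell Western imaging at 700/800 nm in RKO cells exposed to compounds for 72 hours. Percent activation used DMSO wells as minimum and 20 μM reference compound as maximum; EC30 curves fitted on triplicate wells.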

[3] = read-out: EC30 (In Cell Western data, Numerical, μM)
[4] = RKO cells, 72 hours, mono-methyl arginine, percent activation, single experiment or average of multiple experiments, read-out: EC30 (In Cell Western data, Numerical)
[5] = RKO cells, 72 hours, mono-methyl arginine, percent activation

human PRMT8, sequence (Q9NR22 whole entry, the tested form may be a part): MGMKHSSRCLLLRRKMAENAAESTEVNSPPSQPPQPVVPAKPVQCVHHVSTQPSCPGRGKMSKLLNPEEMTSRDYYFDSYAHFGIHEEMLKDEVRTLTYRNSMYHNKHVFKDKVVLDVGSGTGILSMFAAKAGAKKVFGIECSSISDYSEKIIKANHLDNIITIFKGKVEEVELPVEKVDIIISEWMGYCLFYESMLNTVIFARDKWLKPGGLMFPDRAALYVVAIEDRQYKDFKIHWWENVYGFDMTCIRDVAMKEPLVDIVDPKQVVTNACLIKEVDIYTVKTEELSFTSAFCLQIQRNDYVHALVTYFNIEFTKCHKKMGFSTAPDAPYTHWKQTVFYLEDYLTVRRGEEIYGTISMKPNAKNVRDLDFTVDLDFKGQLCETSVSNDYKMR

Compound	IC50 [1]	EC30 [2, 4]	other results
CNCCN(C)Cc1c[nH]nc1-c1ccc(F)cc1 [Compound 2, N^1-((3-(4-fluorophenyl)-1H-pyrazol-4-yl)methyl)-N^1,N^2-dimethylethane-1,2-diamine]	507 nM	–	EC30 [2, 3]: 1.12 µM
CCCc1ccc(-c2n[nH]cc2CN(C)CCNC)cc1 [Compound 20]	57.7 nM	0.18 µM	–
CNCCN(C)Cc1c[nH]nc1-c1cccc([N+](=O)[O-])c1 [Compound 21]	520 nM	–	–
CNCCN(C)Cc1c[nH]nc1-c1cccc(C#N)c1 [Compound 22]	2240 nM	–	–
CNCCN(C)Cc1c[nH]nc1-c1ccccc1OC [Compound 23]	3290 nM	–	–
CNCCN(C)Cc1c[nH]nc1-c1cccc(OC)c1 [Compound 24]	888 nM	–	–
CNCCN(C)Cc1c[nH]nc1-c1ccc(OC)cc1 [Compound 25]	550 nM	–	–
CNCCN(C)Cc1c[nH]nc1-c1cccc(O)c1 [Compound 26]	1500 nM	–	–
CNCCN(C)Cc1c[nH]nc1-c1ccc(O)cc1 [Compound 27]	712 nM	12.3 µM	–
CNCCN(C)Cc1c[nH]nc1-c1ccc(CO)cc1 [Compound 28]	95.5 nM	10.2 µM	–
CNCCN(C)Cc1c[nH]nc1-c1ccc(C)cc1C [Compound 29]	2310 nM	–	–
CNCCN(C)Cc1cn(CCCC(O)CO)nc1-c1ccc(F)cc1 (stereo not shown) [Compound 30]	> 50000 nM	–	–
CNCCN(C)Cc1cnn(CCCC(O)CO)c1-c1ccc(F)cc1 (stereo not shown) [Compound 31]	6310 nM	–	–
CNCCN(C)Cc1c[nH]nc1-c1ccc(N)cc1 [Compound 33]	1430 nM	–	–
CNCCN(C)Cc1c[nH]nc1-c1ccc(Oc2ccccc2)cc1 [Compound 37]	57.6 nM	0.05 µM	–
CNCCN(C)Cc1c[nH]nc1-c1ccccc1C(F)(F)F [Compound 38]	9900 nM	–	EC30 (In Cell Western data) [2, 5]: C (“C” indicates an EC30 ≧ 12.01 μM)
CCNC(=O)c1cccc(-c2n[nH]cc2CN(C)CCNC)c1 [Compound 43]	2260 nM	–	–
CNCCN(C)Cc1c[nH]nc1-c1ccc(C(=O)c2ccccc2)cc1 [Compound 45]	308 nM	–	EC30 (In Cell Western data) [2, 5]: A (“A” indicates an EC30 ≦ 3.00 μM); EC30 (In Cell Western data, Numerical, μM) ([2]; RKO cells, 72 hours, mono-methyl arginine, percent activation, single experiment or average of multiple experiments): 0.454 µM
CNCCN(C)Cc1c[nH]nc1-c1ccccc1-c1ccccc1 [Compound 46]	11900 nM	–	EC30 (In Cell Western data) [2, 5]: C (“C” indicates an EC30 ≧ 12.01 μM)
CNCCN(C)Cc1c[nH]nc1-c1ccc(F)cc1F [Compound 49]	749 nM	–	–
CNCCN(C)Cc1c[nH]nc1-c1cc(F)ccc1F [Compound 50]	1660 nM	–	–
CNCCN(C)Cc1c[nH]nc1-c1ccc(F)c(F)c1 [Compound 51]	184 nM	–	–
CNCCN(C)Cc1c[nH]nc1-c1ccc(OC)c(F)c1 [Compound 52]	219 nM	–	–
CNCCN(C)Cc1c[nH]nc1-c1ccc(OC)cc1OC [Compound 55]	3190 nM	–	EC30 (In Cell Western data) [2, 5]: C (“C” indicates an EC30 ≧ 12.01 μM)
CNCCN(C)Cc1c[nH]nc1-c1c(OC)cccc1OC [Compound 56]	34900 nM	–	EC30 (In Cell Western data) [2, 5]: C (“C” indicates an EC30 ≧ 12.01 μM)

Compound	IC50 [1]	EC30 [2, 4]	other results
CNCCN(C)Cc1c[nH]nc1-c1cccc2ccccc12 [Compound 57]	196 nM	–	–
CNCCN(C)Cc1c[nH]nc1-c1ccc2ccccc2c1 [Compound 58]	170 nM	–	–
CNCCN(C)Cc1cn(CCC(O)CO)nc1-c1ccc(F)cc1 (stereo not shown) [Compound 59]	8860 nM	–	–
CN(CCN)Cc1cnn(CCO)c1-c1ccc(F)cc1 [Compound 65]	8610 nM	–	–
CN(CCN)Cc1cn(CCO)nc1-c1ccc(F)cc1 [Compound 66]	8750 nM	–	–
CNCCN(C)Cc1c[nH]nc1-c1cc(C(C)C)cc(C(C)C)c1 [Compound 229, N^1-((3-(3,5-diisopropylphenyl)-1H-pyrazol-4-yl)methyl)-N^1,N^2-dimethylethane-1,2-diamine]	–	8.71 µM	–
CNCCN(C)Cc1c[nH]nc1-c1ccc(Oc2cccc(OC)c2)cc1 [Compound 230]	–	0.206 µM	–
CNCCN(C)Cc1c[nH]nc1-c1ccc(Oc2cccc(F)c2)cc1 [Compound 231]	–	0.23 µM	–
CNCCN(C)Cc1c[nH]nc1-c1ccc(Oc2ccccc2)c(C(=O)NC)c1 [Compound 232]	–	7.14 µM	–
CNCCN(C)Cc1c[nH]nc1-c1ccc(Oc2ccccc2)c(C(=O)N(C)C)c1 [Compound 233]	–	17.3 µM	–
CC(C)Cc1cccc(-c2n[nH]cc2CN(C)CCN)c1 [Compound 235]	–	1.56 µM	–
CNCCN(C)Cc1c[nH]nc1-c1ccc(OCCCO)cc1 [Compound 236]	–	0.852 µM	–
CNCCN(C)Cc1c[nH]nc1-c1ccc(Oc2ccccc2F)cc1 [Compound 237]	–	0.114 µM	–
CNCCN(C)Cc1n[nH]cc1-c1ccc(Oc2cccc(OC)c2)cc1 [Compound 239]	–	1.28 µM	–
CNCCN(C)Cc1n[nH]cc1-c1ccc(Oc2ccccc2)c(C(=O)NC)c1 [Compound 240]	–	6.45 µM	–
CNCCN(C)Cc1n[nH]cc1-c1ccc(Oc2ccccc2)c(C(=O)N(C)C)c1 [Compound 241]	–	10.4 µM	–
CNCCN(C)Cc1n[nH]cc1-c1cc(C(C)C)cc(C(C)C)c1 [Compound 242]	–	> 20 µM	–
CNCCN(C)Cc1cn(C)nc1-c1ccc(OC(C)C)cc1 [Compound 243, N^1-((3-(4-isopropoxyphenyl)-1-methyl-1H-pyrazol-4-yl)methyl)-N1,N2-dimethylethane-1,2-diamine]	–	0.809 µM	–
CNCCN(C)Cc1cn(Cc2ccncc2)nc1-c1ccc(OC(C)C)cc1 [Compound 245]	–	0.627 µM	–
CNCCN(C)Cc1cn(Cc2cccnc2)nc1-c1ccc(OC(C)C)cc1 [Compound 246]	–	–	EC30 [2, 3]: 1.08 µM
CNCCN(C)Cc1cn(Cc2ccccn2)nc1-c1ccc(OC(C)C)cc1 [Compound 247]	–	8.26 µM	–
CNCCN(C)Cc1cn(CC(=O)OC)nc1-c1ccc(OC(C)C)cc1 [Compound 248]	–	> 20 µM	–
CNCCN(C)Cc1cn(CC(N)=O)nc1-c1ccc(OC(C)C)cc1 [Compound 251]	–	18.7 µM	–
CCn1ncc(CN(C)CCNC)c1-c1ccc(OC(C)C)cc1 [Compound 252]	–	–	EC30 [2, 3]: 1.82 µM
CNCCN(C)Cc1cn(CCOC)nc1-c1ccc(OC(C)C)cc1 [Compound 253, N1-((3-(4-isopropoxyphenyl)-1-(2-methoxyethyl)-1H-pyrazol-4-yl)methyl)-N1,N2-dimethylethane-1,2-diamine hydrochloride]	–	–	EC30 [2, 3]: 8 µM

Compound	IC50 [1]	EC30 [2, 4]	other results
CNCCN(C)Cc1cn(C2CCC2)nc1-c1ccc(OC(C)C)cc1 [Compound 254, N1-((1-cyclobutyl-3-(4-isopropoxyphenyl)-1H-pyrazol-4-yl)methyl)-N1,N2-dimethylethane-1,2-diamine hydrochloride]	–	–	EC30 [2, 3]: 2.24 µM
CNCCN(C)Cc1cnn(C2CCCC2)c1-c1ccc(OC(C)C)cc1 [Compound 255]	–	–	EC30 [2, 3]: 2.66 µM
C=C(C)C(=O)Nc1cccc(-c2[nH]ncc2CN(C)CCNC)c1 [Compound 257]	–	> 20 µM	–
C=CC(=O)Nc1cccc(-c2[nH]ncc2CN(C)CCNC)c1 [Compound 258]	–	> 20 µM	–
CN(CCN)Cc1c[nH]nc1-c1ccc(Oc2ccccc2F)cc1 [Compound 259]	–	0.532 µM	–
CNCCN(C)Cc1c[nH]nc1-c1cc(OC(C)C)cc(C(C)C)c1 [Compound 260]	–	6.07 µM	–
CNCCN(C)Cc1c[nH]nc1-c1ccc(Oc2cccc(C#N)c2)cc1 [Compound 261]	–	0.327 µM	–
CNCCN(C)Cc1c[nH]nc1-c1ccc(Oc2cccc(C(C)C)c2)cc1 [Compound 262]	–	1.23 µM	–
CNCCN(C)Cc1c[nH]nc1-c1cc(Cl)c(OC(C)C)c(Cl)c1 [Compound 265, N^1-((3-(3,5-dichloro-4-isopropoxyphenyl)-1H-pyrazol-4-yl)methyl)-N^1,N^2-dimethylethane-1,2-diamine]	–	0.503 µM	–
CNCCN(C)Cc1nn(C)cc1-c1ccc(OCCCOC)cc1 [Compound 266]	–	> 20 µM	–
CNCCN(C)Cc1n[nH]cc1-c1ccc(Oc2cccc(C#N)c2)cc1 [Compound 267]	–	0.694 µM	–
CNCCN(C)Cc1n[nH]cc1-c1ccc(Oc2cccc(C(=O)NC)c2)cc1 [Compound 268]	–	3.69 µM	–
CNCCN(C)Cc1n[nH]cc1-c1ccc(Oc2cccc(F)c2)cc1 [Compound 270]	–	1.06 µM	–
CNCCN(C)Cc1n[nH]cc1-c1cc(CC(C)C)cc(CC(C)C)c1 [Compound 271]	–	> 20 µM	–
CNCCN(C)Cc1n[nH]cc1-c1cc(OC(C)C)cc(C(C)C)c1 [Compound 272]	–	> 20 µM	–
CNCCN(C)Cc1n[nH]cc1-c1cc(Cl)c(OC(C)C)c(Cl)c1 [Compound 273]	–	1.3 µM	–
CNCCN(C)Cc1c[nH]nc1-c1ccc(Oc2ccccc2C(=O)NC)cc1 [Compound 274]	–	3.04 µM	–
CNCCN(C)Cc1n[nH]c(C)c1-c1ccc(OC(C)C)cc1 [Compound 275]	–	0.122 µM	–
CNCCN(C)Cc1c(-c2ccc(OCCCOC)cc2)cnn1C [Compound 276]	–	> 20 µM	–
CNCCN(C)Cc1n[nH]cc1-c1ccc(Oc2cccc(C(C)C)c2)cc1 [Compound 277]	–	> 20 µM	–
CNCCN(C)Cc1n[nH]cc1-c1ccc(Oc2ccccc2F)cc1 [Compound 279, N^1-((4-(4-(2-fluorophenoxy)phenyl)-1H-pyrazol-3-yl)methyl)-N^1,N^2-dimethylethane-1,2-diamine]	–	0.637 µM	–
CC(C)Cc1cc(-c2n[nH]cc2CN(C)CCN)ccc1F [Compound 280]	–	1.72 µM	–
CNCCN(C)Cc1c[nH]nc1-c1cc(CC(C)C)cc(CC(C)C)c1 [Compound 281]	–	3.52 µM	–
CNCCN(C)Cc1c[nH]nc1-c1cc(Cl)c(OCC2CC2)c(Cl)c1 [Compound 282]	–	0.383 µM	–
